We go through 4 molecules from US10183030B2, “17α,21-diesters of cortexolone for use in the treatment of tumors” (COSMO TECHNOLOGIES LTD., priority 2014, dated 2019).

Data set [1] relates to Panc1 (AR+) pancreatic cancer cells. Kind of data set: ATP-dependent proliferation/viability assay, Panc1. The class given is cell-based. As to conditions: Homo sapiens. The method, then: (§1) The experimental method consisted of: • 1. […] After 24 hours, 10 nM DHT (dihydrotestosterone) with or without anti-androgen compounds, or DMSO vehicle (negative control) was added to the cultures. • 3.
(§2) Each compounds was titrated from 3 uM to 200 uM.

The test system of data set [2] is PC3 (AR−) prostate cancer cells. Kind of data set: ATP-dependent proliferation/viability assay, PC3. The settings on record: Homo sapiens, 72 h, Tables I and II, unit inferred, titrated from 3 uM to 200 uM, 3 days. It is filed as cell-based. The procedure:
(§3) The experiment was performed to test and to define the antitumor activity in vitro of cortexolone 17α-benzoate on LNCaP (AR^+) and PC3 (AR^−), representative of Prostatic cancer cell lines with Androgen Receptor (AR) positive or negative expression, respectively. The experimental method consisted of: • 1. […] After 24 hours, 10 nM DHT (dihydrotestosterone) with or without anti-androgen compounds, or DMSO vehicle (negative control) was added to the cultures. • 3.
(§4) The experiment was performed to test and to define antitumor activity in vitro of cortexolone 17α-valerate-21-propionate (CB-03-10) on LNCaP (AR^+) and PC3 (AR^−), representative of Prostatic cancer cell lines with AR positive or negative expression, respectively. The experimental method consisted of: • 1. […] After 24 hours, 10 nM DHT (dihydrotestosterone) with or without anti-androgen compounds, or DMSO vehicle (negative control) was added to the cultures. • 3.
as §2

Data set [3] concerns LNCaP (AR+) prostate cancer cells. Nature of the data set: ATP-dependent proliferation/viability assay, LNCaP. The class given is cell-based. The settings on record: Homo sapiens. The method, then:
as §3, §4, §2

For data set [4], the system named is stimulated PBMC (actively dividing cells). Kind of data set: IC50 on stimulated PBMC (intrinsic toxicity). The class given is cell-based. As to conditions: Homo sapiens, PBMC STIMULATED
Protocol: (§6) The IC50 in PBMC were tested in 2 different activation status: • stimulated—actively dividing cells • resting—quiescent, non-dividing cells
(§7) IC50 of the compounds was determined on fresh cells isolated from human blood (PBMC).
In another data set the test system is HT29 colon cancer cells. Nature of the data set: In vitro proliferation, HT29 (cancer cell panel). It is filed as cell-based. The settings on record: Homo sapiens, HT-29, HT29. The method, then: as §2
The nature of data set [5]: In vivo pharmacokinetics in mouse plasma. The settings on record: mouse, in vivo, 40 mg/kg. The procedure: The pharmacokinetic of CB-03-10 was evaluated in plasma of mice after intravenous (IV), subcutaneous (SC) and oral administration (PO).
Mice (3 per group) were administered with the following doses, blood was collected at the indicated times. Plasma samples were analyzed by HPLC-MS/MS.

Data set [6] concerns MiaPaca2 (AR low) pancreatic cancer cells. Nature of the data set: ATP-dependent proliferation/viability assay, MiaPaca2. The settings on record: Homo sapiens. It is filed as cell-based. The method, then:
as §1, §2

A further data set deals with MCF7 breast cancer cells. Nature of the data set: In vitro proliferation / cytotoxic assay, MCF7. It is filed as cell-based. As to conditions: Homo sapiens.
The test system of data set [7] is PC3 (AR−) prostate cancer cells. Nature of the data set: ATP-dependent proliferation/viability assay, PC3. It is filed as cell-based. As to conditions: Homo sapiens.
For data set [8], the system named is resting PBMC (quiescent, non-dividing cells). Nature of the data set: IC50 on resting PBMC (intrinsic toxicity). The class given is cell-based. As to conditions: Homo sapiens, PBMC RESTING, Table III, read-out: in vitro proliferation IC50 (μ/M).
Protocol: as §6, §7
Data set [9] has as its system Caspase 8, 9 and 3/7 in MiaPaca2 cells. Nature of the data set: Caspase activity in MiaPaca2 cells. The class given is cell-based, human. The settings on record: 8, 24, 48 hours. The procedure: From previous studies was determined that CB-03-10 induces apoptosis using Annexin V staining in MiaPaca2 cells. To better analyze the phenomenon the enzymatic activity of Caspase 8 (initiator caspase for Extrinsic Pathway) and Caspase 9 (initiator caspase for Intrinsic Pathway) and of Caspases 3 and 7 (effector caspases) were measured.
After 24 hours test compounds were added to cells, Gemcitabine (a known pancreatic cancer chemotherapeutic agent) and DMSO were used as positive and negative control, respectively. After 8, 24, & 48 hours incubation with test compounds, cells were lysed in buffer containing the caspase 3/7 or 8 or 9 substrate and a stable luciferase in proprietary buffers. The lysates were transferred to white opaque plates before measuring luminescence in a Tecan Safire instrument. Parallel plates treated identically, were used to determine viable cells. All caspase activities were corrected for the number of viable cells.

Another data set has as its system LNCaP cells. Nature of the data set: LNCaP cell viability in the PSA secretion experiment. The class given is cell-based. As to conditions: Homo sapiens, 48 hours, same cells as PSA assay. The method, then:
(§5) Prostate-specific antigen, or PSA, is a protein produced by cells of the prostate gland. The PSA test measures the level of PSA in a person's blood. The blood level of PSA is often elevated in men with prostate cancer and it used as surrogate marker to test prostate cancer progression in human population. […] After 48 hours incubation with test compounds, supernatants were harvested and tested with an Elisa assay for PSA and same cells were lysed for cell viability assessment.

The subject of data set [10] is PSA secretion from LNCaP prostate cancer cells. Nature of the data set: PSA secretion from LNCaP cells (Elisa). As to conditions: Homo sapiens, 48 hours, read-out: IC50, inhibition of PSA secretion. The class given is cell-based. The method, then: as §5, with “population. After the observation that CB-03-10 was able to inhibit in vivo the growth of prostate cancer, the capability of the compound to inhibit in vitro PSA secretion from cancer cells was determined.” for “population.”

The next data set has as its system MDA-MB-231 TNBC cells. Kind of data set: In vitro proliferation / cytotoxic assay, MDA-MB-231. The class given is cell-based.
[11] abbreviates: Table III, read-out: in vitro proliferation IC50 (μ/M).
Setting [12] is: Table IV, read-out: In vitro proliferation IC50 (micro Molar).

Where two headings read alike, the source gives them in different places.

Protocol for MCF7 breast cancer cells: (§8) After 72 hours incubation cell were harvested, lysed and viability determined using the cell titer glow assay for viability.
Protocol for MDA-MB-231 TNBC cells: as §8

On to `CCCCC(=O)O[C@]1(C(=O)CO)CC[C@H]2[C@@H]3CCC4=CC(=O)CC[C@]4(C)[C@H]3CC[C@@]21C` [CB-03-05, cortexolone 17α-valerate], for which the IC50 in data set [1] (PANC-1, 72 h, Panc1, Tables I and II, unit inferred, titrated from 3 uM to 200 uM, 3 days, read-out: IC50) is 74 µM; in data set [1] (PANC-1, Panc1, Table III, read-out: in vitro proliferation IC50 (μ/M)), 74 µM; in [1] (PANC-1, Panc1, Table IV, read-out: In vitro proliferation IC50 (micro Molar)), 74 µM; in [2], 170 µM; in data set [3] (72 h, Tables I and II, unit inferred, compounds titrated from 3 uM to 200 uM, 3 days, read-out: IC50), 32 µM; in data set [3] (setting [11]) it was 32 µM. The IC50 in [3] (setting [12]) is 32 µM; in data set [3] (general conclusion text, read-out: IC50 in LNCaP prostate cancer cells) it was 32 µM; in data set [4] (setting [11]), 130 µM; in data set [4] (setting [12]) it was 130 µM; with HT29 colon cancer cells (Table III, read-out: in vitro proliferation IC50 (μ/M) (converted)), 30 µM; in the data set with HT29 colon cancer cells (setting [12]), 30 µM. The IC50 in data set [6] (MIA PaCa-2, 72 h, MiaPaca2, Tables I and II, unit inferred, titrated from 3 uM to 200 uM, 3 days, read-out: IC50) amounted to 59 µM; in [6] (MIA PaCa-2, MiaPaca2, Table III, read-out: in vitro proliferation IC50 (μ/M)) it was 59 µM; in data set [6] (MIA PaCa-2, MiaPaca2, Table IV, read-out: In vitro proliferation IC50 (micro Molar)), 59 µM; in the data set with MCF7 breast cancer cells (MCF7 (ER+PR+GR+/−), 72 hours, Table VI, unit inferred, read-out: IC50 on breast cancer cells), 50 µM; in the data set on MCF7 breast cancer cells (MCF7, Table III, read-out: in vitro proliferation IC50 (μ/M)) it was 50 µM; in the data set with MCF7 breast cancer cells (MCF7, Table IV, read-out: In vitro proliferation IC50 (micro Molar)), 50 µM. The IC50 in [7] (setting [11]) was found to be 170 µM; in data set [7] (setting [12]), 170 µM; in data set [8], 120 µM. The “body exposure (metabolite after CB-03-10 dosing)” value came out at 47 h/ng/mL in [5] (po) and 189 h/ng/mL in data set [5] (sc). Besides, in data set [9], the “Caspase 3/7 induction” value is on record as “does not show a good profile for caspase activation”.
As to `C[C@]12CCC(=O)C=C1CC[C@@H]1[C@@H]2CC[C@@]2(C)[C@H]1CC[C@]2(O)C(=O)CO` [Cortexolone], the IC50 came to 153 µM with LNCaP cells and 612 µM in data set [10].
Regarding `CNC(=O)c1ccc(N2C(=S)N(c3ccc(C#N)c(C(F)(F)F)c3)C(=O)C2(C)C)cc1F` [Enzalutamide], in [10], the IC50 is under 3 µM.
On to `CC#C[C@]1(O)CC[C@H]2[C@@H]3CCC4=CC(=O)CCC4=C3[C@@H](c3ccc(N(C)C)cc3)C[C@@]21C` [RU486, Mifepristone], for which the IC50 in the data set with MDA-MB-231 TNBC cells (Homo sapiens, MDA-MB-231 (ER−PR−GR++), 72 hours, Table VI, unit inferred, read-out: IC50 on breast cancer cells) was 435 µM. For the same molecule, the “maximum inhibition of viability” value in the data set with MDA-MB-231 TNBC cells (MDA-MB-231, at 100 μM) is on record as 25%.
